Data as given in ChEMBL document CHEMBL3860060, “Discovery and Optimization of 1-Phenoxy-2-aminoindanes as Potent, Selective, and Orally Bioavailable Inhibitors of the Na+/H+ Exchanger Type 3 (NHE3)” (J Med Chem, 2016).

Columns and labels:
[1] = target: T1, Sodium/hydrogen exchanger 3 (Homo sapiens, UniProt P48764); test: Inhibition of human NHE3 expressed in LAP1 cell assessed as intracellular pH recovery measured for 2 mins by CECF-AM dye based FLIPR assay
T1 sequence (P48764 whole entry): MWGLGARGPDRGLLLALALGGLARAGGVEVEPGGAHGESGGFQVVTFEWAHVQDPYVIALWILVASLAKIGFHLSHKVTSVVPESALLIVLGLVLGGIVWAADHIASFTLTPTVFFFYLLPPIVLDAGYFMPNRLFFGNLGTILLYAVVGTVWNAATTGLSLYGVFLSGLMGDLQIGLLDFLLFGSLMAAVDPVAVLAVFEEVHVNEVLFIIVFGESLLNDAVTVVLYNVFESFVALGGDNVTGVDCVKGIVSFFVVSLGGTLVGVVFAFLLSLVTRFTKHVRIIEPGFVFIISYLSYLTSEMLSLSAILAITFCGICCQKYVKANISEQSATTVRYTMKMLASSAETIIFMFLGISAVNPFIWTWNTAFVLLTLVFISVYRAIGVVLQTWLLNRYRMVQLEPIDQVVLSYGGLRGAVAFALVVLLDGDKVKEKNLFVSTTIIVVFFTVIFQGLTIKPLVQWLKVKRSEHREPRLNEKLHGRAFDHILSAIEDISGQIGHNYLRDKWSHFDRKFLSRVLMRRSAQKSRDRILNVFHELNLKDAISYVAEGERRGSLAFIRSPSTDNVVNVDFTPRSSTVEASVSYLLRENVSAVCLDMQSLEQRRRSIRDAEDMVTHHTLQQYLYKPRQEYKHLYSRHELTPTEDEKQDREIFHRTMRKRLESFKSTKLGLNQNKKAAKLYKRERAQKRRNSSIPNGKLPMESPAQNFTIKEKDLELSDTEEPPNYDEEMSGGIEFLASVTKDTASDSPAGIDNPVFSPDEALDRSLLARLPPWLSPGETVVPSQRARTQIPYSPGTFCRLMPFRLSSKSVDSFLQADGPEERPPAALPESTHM

[2] = target: Cytochrome P450 2D6 (Homo sapiens, UniProt P10635)
Description: Inhibition of CYP2D6 in pooled human hepatic microsomes using dextromethorphan substrate in presence of NADPH

[3] = Permeability in human Caco2/TC7 cells assessed as total flux at 20 uM incubated for 2 hrs by LC-MS/MS method; type: ADME, cell-based; conditions: Caco-2, read-out: permeability

Chain of Cytochrome P450 2D6 (P10635 whole entry): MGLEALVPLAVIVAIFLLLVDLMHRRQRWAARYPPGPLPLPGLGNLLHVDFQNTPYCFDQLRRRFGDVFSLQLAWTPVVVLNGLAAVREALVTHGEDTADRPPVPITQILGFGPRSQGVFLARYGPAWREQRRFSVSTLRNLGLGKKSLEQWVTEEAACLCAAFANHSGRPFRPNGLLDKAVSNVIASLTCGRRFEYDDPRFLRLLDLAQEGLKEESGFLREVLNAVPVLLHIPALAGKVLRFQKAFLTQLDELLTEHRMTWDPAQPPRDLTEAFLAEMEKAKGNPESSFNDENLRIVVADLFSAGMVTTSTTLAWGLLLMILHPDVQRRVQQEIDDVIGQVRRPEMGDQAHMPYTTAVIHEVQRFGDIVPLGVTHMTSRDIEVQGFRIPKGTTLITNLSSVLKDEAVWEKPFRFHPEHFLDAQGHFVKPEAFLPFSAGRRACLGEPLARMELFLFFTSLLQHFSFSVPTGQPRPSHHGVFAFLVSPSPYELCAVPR

Structure (SMILES) | IC50 [1] [nM] | IC50 [2] [nM] | Papp at 2 h, 20 µM [3] [×10⁻⁶ cm/s]
CS(=O)(=O)c1ccc(O[C@H]2c3cc(Cl)cc(Cl)c3C[C@@H]2N2CCCN(CCO)CC2)cc1 | 30 | – | –
CS(=O)(=O)c1ccc(O[C@H]2c3cc(Cl)cc(Cl)c3C[C@@H]2N2CCC[C@@H](N)C2)cc1 | 4 | – | –
CS(=O)(=O)c1ccc(O[C@H]2c3cc(Cl)cc(F)c3C[C@@H]2N2CCCC2)cc1 (racemic) | 737 | < 300 | 28.3
CN1CCN([C@H]2Cc3c(Cl)cc(Cl)cc3[C@@H]2Oc2ccc(S(C)(=O)=O)cc2)CC1 | 4040 | – | –
CN(C)CCN(C)[C@H]1Cc2c(Cl)cc(Cl)cc2[C@@H]1Oc1ccc(S(C)(=O)=O)cc1 | 20 | < 300 | 8
CS(=O)(=O)c1ccc(O[C@H]2c3cc(Cl)cc(Cl)c3C[C@@H]2N2CCC3(CCNC3)C2)cc1 (stereo partly drawn) | 11 | – | –
N[C@@H]1CCCN([C@H]2Cc3c(Cl)cc(Cl)cc3[C@@H]2Oc2ccc(S(N)(=O)=O)c(Cl)c2Cl)C1 | 0.2 | 1500 | 0.6
CS(=O)(=O)c1ccc(O[C@H]2c3cc(Cl)cc(F)c3C[C@@H]2N2CCNCC2)cc1 (racemic) | 168 | – | –
CS(=O)(=O)c1ccc(O[C@H]2c3ccccc3C[C@@H]2N2CCCC2)cc1 | 572 | < 300 | 21.5
NS(=O)(=O)c1ccc(O[C@H]2c3ccccc3C[C@@H]2N2CCCC2)c(Cl)c1Cl | 123 | 400 | 13.2
CC(=O)Nc1cc(O[C@H]2c3ccccc3C[C@@H]2N2CCCC2)ccn1 | 4530 | – | –
CS(=O)(=O)c1ccc(O[C@H]2c3cc(Cl)cc(Cl)c3C[C@@H]2N2CCCNCC2)cc1 | 6 | < 300 | 1.6
O=S1(=O)CCCN1c1cccc(O[C@H]2c3ccccc3C[C@@H]2N2CCCC2)c1 | 1530 | – | –
CS(=O)(=O)c1ccc(O[C@H]2c3cc(Cl)cc(Cl)c3C[C@@H]2N2CCC[C@@H](NCCF)C2)cc1 | 56 | < 300 | 10.5
CS(=O)(=O)c1ccc(O[C@H]2c3cc(Cl)cc(Cl)c3C[C@@H]2N2CCNCC2)cc1 | 22 | < 300 | 3
CCN(CC)C(=O)c1ccc(O[C@H]2c3ccccc3C[C@@H]2N2CCCC2)cc1 | 2070 | – | –
c1ccc2c(c1)C[C@H](N1CCCC1)[C@H]2Oc1ccc(-c2nccs2)cc1 | 1710 | – | –
O=c1[nH]ccn1-c1cccc(O[C@H]2c3ccccc3C[C@@H]2N2CCCC2)c1 | 281 | 3800 | 9.8
CS(=O)(=O)c1ccc(O[C@H]2c3c(ccc(Cl)c3Cl)C[C@@H]2N2CCCNCC2)cc1 | 43 | – | –
Cc1noc(C)c1-c1ccc(O[C@H]2c3ccccc3C[C@@H]2N2CCCC2)cc1 | 411 | – | –
CN(C)CCCN(C)[C@H]1Cc2c(Cl)cc(Cl)cc2[C@@H]1Oc1ccc(S(C)(=O)=O)cc1 | 48 | – | –

Structure (SMILES) | IC50 [1] [nM] | IC50 [2] [nM] | Papp at 2 h, 20 µM [3] [×10⁻⁶ cm/s]
Cc1nnc(C)n1-c1ccc(O[C@H]2c3ccccc3C[C@@H]2N2CCCC2)c(Cl)c1 | 78 | 730 | 6.7
N[C@@H]1CCCN([C@H]2Cc3c(Cl)cc(Cl)cc3[C@@H]2Oc2ccc(-n3ccnc3)cc2)C1 | 23 | < 300 | 1.1
CN1C[C@@H]2CN([C@H]3Cc4c(Cl)cc(Cl)cc4[C@@H]3Oc3ccc(S(C)(=O)=O)cc3)C[C@@H]2C1 | 241 | < 300 | 6
N[C@@H]1CCCN([C@H]2Cc3ccccc3[C@@H]2Oc2ccc(S(N)(=O)=O)c(Cl)c2Cl)C1 | 650 | < 300 | 0.08
O=C1CCC(=O)N1c1cccc(O[C@H]2c3ccccc3C[C@@H]2N2CCCC2)c1 | 2960 | – | –
O=C1OCCN1c1cccc(O[C@H]2c3ccccc3C[C@@H]2N2CCCC2)c1 | 955 | – | –
Cc1nnc(C2CC2)n1-c1ccc(O[C@H]2c3ccccc3C[C@@H]2N2CCCC2)cc1 | 272 | – | –
Cc1nnc(C)n1-c1ccc(O[C@H]2c3ccccc3C[C@@H]2N2CCCC2)cc1 | 345 | – | –
CS(=O)(=O)c1ccc(OC2c3cc(Cl)cc(Cl)c3CC2N2C[C@H]3CNC[C@H]3C2)cc1 (single isomer, unassigned) | 28 | 900 | 0.07
O=C1CCCN1c1cccc(O[C@H]2c3ccccc3C[C@@H]2N2CCCC2)c1 | 3520 | – | –
NS(=O)(=O)c1ccc(O[C@H]2c3ccccc3C[C@@H]2N2CCCC2)cc1 | 500 | – | –
Cc1nnc(C)n1-c1ccc(O[C@H]2c3cc(Cl)ccc3C[C@@H]2N2CCCC2)c(Cl)c1 | 94 | 2500 | 16.2
CS(=O)(=O)c1ccc(O[C@H]2c3cc(Cl)cc(Cl)c3C[C@@H]2N2CC[C@H](F)C2)cc1 | 883 | – | –
CS(=O)(=O)c1ccc(O[C@H]2c3cc(Cl)ccc3C[C@@H]2N2CCNCC2)cc1 (racemic) | 540 | – | –
N[C@@H]1CCCN([C@H]2Cc3c(Cl)cc(Cl)cc3[C@@H]2Oc2ccc(-n3cncn3)cc2)C1 | 30 | < 300 | 2.4
CS(=O)(=O)c1ccc(O[C@H]2c3cc(Cl)cc(Cl)c3C[C@@H]2N2CC[C@@H](O)C2)cc1 | 588 | 2400 | 28.6
CS(=O)(=O)c1ccc(O[C@H]2c3cc(F)cc(Cl)c3C[C@@H]2N2CCNCC2)cc1 (racemic) | 123 | – | –
N#Cc1ccc(O[C@H]2c3ccccc3C[C@@H]2N2CCCC2)cc1 | 4500 | – | –
CN1CCCN([C@H]2Cc3c(Cl)cc(Cl)cc3[C@@H]2Oc2ccc(S(C)(=O)=O)cc2)CC1 | 93 | < 300 | 6.4
CS(=O)(=O)c1ccc(O[C@H]2c3cc(Cl)cc(Cl)c3C[C@@H]2N2CC[C@H](O)C2)cc1 | 384 | – | –
C[C@@H]1CN([C@H]2Cc3c(Cl)cc(Cl)cc3[C@@H]2Oc2ccc(S(C)(=O)=O)cc2)CCN1 | 20 | – | 5.1

Structure (SMILES) | IC50 [1] [nM] | IC50 [2] [nM] | Papp at 2 h, 20 µM [3] [×10⁻⁶ cm/s]
Cn1ccn(-c2cccc(O[C@H]3c4ccccc4C[C@@H]3N3CCCC3)c2)c1=O | 197 | < 300 | 9.8
COCCN1CCCN([C@H]2Cc3c(Cl)cc(Cl)cc3[C@@H]2Oc2ccc(S(C)(=O)=O)cc2)CC1 | 64 | < 300 | 11
NC(=O)Nc1cccc(O[C@H]2c3ccccc3C[C@@H]2N2CCC[C@@H](N)C2)c1 | 330 | 8600 | 0.04
c1ccc2c(c1)C[C@H](N1CCCC1)[C@H]2Oc1cccc2cccnc12 | 9520 | – | –
CS(=O)(=O)c1ccc(O[C@H]2c3cc(Cl)cc(Cl)c3C[C@@H]2N2CCCNCC2)c(Cl)c1 | 2 | – | –
CC(=O)Nc1cccc(O[C@H]2c3ccccc3C[C@@H]2N2CCCC2)c1 | 438 | 640 | 9.1
Cc1nnc(C)n1-c1ccc(O[C@H]2c3ccccc3C[C@@H]2N2CCCC2)c(C(F)(F)F)c1 | 118 | – | –
CS(=O)(=O)c1ccc(O[C@H]2c3ccccc3C[C@@H]2N2CCCC2)c(Cl)c1Cl | 540 | – | 19.2
Cc1nnc(C)n1-c1ccc(O[C@H]2c3cc(Cl)ccc3C[C@@H]2N2CC[C@@H](O)C2)c(Cl)c1 | 90 | 9500 | 0.5
CS(=O)(=O)c1ccc(O[C@H]2c3cc(F)ccc3C[C@@H]2N2CCNCC2)cc1 (racemic) | 3490 | – | –
CC(=O)Nc1ccc(O[C@H]2c3ccccc3C[C@@H]2N2CCCC2)cc1 | 2770 | – | –
CS(=O)(=O)c1ccc(O[C@H]2c3c(Cl)cc(Cl)cc3C[C@@H]2N2CCNCC2)cc1 | 135 | – | –
CC(=O)Nc1cccc(O[C@H]2c3ccccc3C[C@@H]2N2CCC[C@@H](N)C2)c1 | 440 | 5100 | 0.03
Cc1nncn1-c1ccc(O[C@H]2c3ccccc3C[C@@H]2N2CCCC2)cc1 | 640 | – | –
CS(=O)(=O)c1ccc(O[C@H]2c3cc(Cl)cc(Cl)c3C[C@@H]2N2CCC[C@@H](NCCO)C2)cc1 | 4 | – | –
CS(=O)(=O)c1ccc(O[C@H]2c3cc(Cl)c(Cl)cc3C[C@@H]2N2CCCNCC2)cc1 (racemic) | 6060 | – | –
Cc1c(O[C@H]2c3ccccc3C[C@@H]2N2CCCC2)ccc(-n2c(C)nnc2C)c1C | 170 | – | –
O=C1OCc2cc(O[C@H]3c4ccccc4C[C@@H]3N3CCCC3)ccc21 | 2440 | – | –
CS(=O)(=O)c1ccc(O[C@H]2c3ccccc3C[C@@H]2N2CCNCC2)cc1 | 6680 | – | –
CS(=O)(=O)c1ccc(O[C@H]2c3cc(Cl)cc(Cl)c3C[C@@H]2N2CC[C@@H](F)C2)cc1 | 166 | – | –
CS(=O)(=O)c1ccc(O[C@H]2c3cc(Cl)cc(Cl)c3C[C@@H]2N2CC(O)C2)cc1 | 1640 | – | –
